Laboratory results reported in patent US20160122320A1, “USEFUL COMBINATIONS OF MONOBACTAM ANTIBIOTICS WITH BETA-LACTAMASE INHIBITORS” (Basilea Pharmaceutica AG, priority 2005, published 2016).

Key:
Assay in all cases: MIC, NCCLS broth microdilution
Format in all cases: cell-based
[1] = tested on: Enterobacter aerogenes Zayakosky; details: Enterobacter aerogenes Zayakosky 5
Enterobacter cloacae P99 = tested on: Enterobacter cloacae P99
Serratia marcescens S6 = tested on: Serratia marcescens S6
Acinetobacter sp. J2 = details: Acinetobacter baumannii J2
[2] = tested on: Pseudomonas aeruginosa MK1184
[3] = tested on: Stenotrophomonas malthophilia 1AC736; details: Stenotrophomonas maltophilia 1AC736
[4] = tested on: Acinetobacter baumannii J51
In short: (§1)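 Growth inhibition read by eye after overnight incubation (30° C. or 37° C.) defines the MIC, using NCCLS M7-A5 broth microdilution with ≤1% DMSO. When combinations were tested, only the formula I compound was titrated and each partner was fixed at 4 μg/mL.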

[5] = tested on: Pseudomonas aeruginosa 1973E
In short: as §1

[6] = tested on: Klebsiella pneumoniae CF104
[7] = with clavulanate (clavulanic acid)

MIC of antibiotic ([1]; antibiotic alone, no inhibitor): 16 µg/mL
MIC of antibiotic at fixed inhibitor concentration of 4 mg/L ([1]; with 102 and clavulanate): 4 µg/mL
MIC of antibiotic at fixed inhibitor concentration of 4 mg/L ([1]; with 102 only): 8 µg/mL
MIC of antibiotic at fixed inhibitor concentration of 4 mg/L ([1]; with 324 and clavulanate): 4 µg/mL
MIC of antibiotic at fixed inhibitor concentration of 4 mg/L ([1]; with 324 only): 4 µg/mL
MIC of antibiotic at fixed inhibitor concentration of 4 mg/L ([1]; with 501): 16 µg/mL
MIC of antibiotic at fixed inhibitor concentration of 4 mg/L ([1]; with BRL427158): 0.5 µg/mL
MIC of antibiotic at fixed inhibitor concentration of 4 mg/L ([1]; with clavulanic acid): 8 µg/mL
MIC of antibiotic at fixed inhibitor concentration of 4 mg/L ([1]; with sulbactam): 16 µg/mL
MIC of antibiotic at fixed inhibitor concentration of 4 mg/L ([1]; with tazobactam): 16 µg/mL
MIC of antibiotic (Enterobacter cloacae P99; antibiotic alone, no inhibitor): 16 µg/mL
MIC of antibiotic at fixed inhibitor concentration of 4 mg/L (Enterobacter cloacae P99; with 102 and clavulanate): 2 µg/mL
MIC of antibiotic at fixed inhibitor concentration of 4 mg/L (Enterobacter cloacae P99; with 102 and sulbactam): 2 µg/mL
MIC of antibiotic at fixed inhibitor concentration of 4 mg/L (Enterobacter cloacae P99; with 102 only): 1 µg/mL
MIC of antibiotic at fixed inhibitor concentration of 4 mg/L (Enterobacter cloacae P99; with 324 and clavulanate): 1 µg/mL
MIC of antibiotic at fixed inhibitor concentration of 4 mg/L (Enterobacter cloacae P99; with 324 and sulbactam): 2 µg/mL
MIC of antibiotic at fixed inhibitor concentration of 4 mg/L (Enterobacter cloacae P99; with 324 only): 2 µg/mL
MIC of antibiotic at fixed inhibitor concentration of 4 mg/L (Enterobacter cloacae P99; with 501): 2 µg/mL
MIC of antibiotic at fixed inhibitor concentration of 4 mg/L (Enterobacter cloacae P99; with BRL427158): 2 µg/mL
MIC of antibiotic at fixed inhibitor concentration of 4 mg/L (Enterobacter cloacae P99; [7]): 8 µg/mL
MIC of antibiotic at fixed inhibitor concentration of 4 mg/L (Enterobacter cloacae P99; with sulbactam): 8 µg/mL
MIC of antibiotic at fixed inhibitor concentration of 4 mg/L (Enterobacter cloacae P99; with tazobactam): 16 µg/mL
MIC of antibiotic (Serratia marcescens S6; antibiotic alone, no inhibitor): <0.06 µg/mL
MIC of antibiotic at fixed inhibitor concentration of 4 mg/L (Serratia marcescens S6; with 102 and clavulanate): ≦0.06 mg/L
MIC of antibiotic at fixed inhibitor concentration of 4 mg/L (Serratia marcescens S6; with 102 and sulbactam): <0.06 µg/mL
MIC of antibiotic at fixed inhibitor concentration of 4 mg/L (Serratia marcescens S6; with 102 only): ≦0.06 mg/L
MIC of antibiotic at fixed inhibitor concentration of 4 mg/L (Serratia marcescens S6; with 324 and clavulanate): <0.06 µg/mL
MIC of antibiotic at fixed inhibitor concentration of 4 mg/L (Serratia marcescens S6; with 324 and sulbactam): <0.06 µg/mL
MIC of antibiotic at fixed inhibitor concentration of 4 mg/L (Serratia marcescens S6; with 324 only): ≦0.06 mg/L
MIC of antibiotic at fixed inhibitor concentration of 4 mg/L (Serratia marcescens S6; with 501): ≦0.06 mg/L
MIC of antibiotic at fixed inhibitor concentration of 4 mg/L (Serratia marcescens S6; with BRL427158): ≦0.06 mg/L
MIC of antibiotic at fixed inhibitor concentration of 4 mg/L (Serratia marcescens S6; [7]): ≦0.06 mg/L
MIC of antibiotic at fixed inhibitor concentration of 4 mg/L (Serratia marcescens S6; with sulbactam): ≦0.06 mg/L
MIC of antibiotic at fixed inhibitor concentration of 4 mg/L (Serratia marcescens S6; with tazobactam): ≦0.06 mg/L
MIC of antibiotic (Acinetobacter sp. J2; antibiotic alone, no inhibitor): 4 µg/mL
MIC of antibiotic at fixed inhibitor concentration of 4 mg/L (Acinetobacter sp. J2; with 102 and clavulanate): 4 µg/mL
MIC of antibiotic at fixed inhibitor concentration of 4 mg/L (Acinetobacter sp. J2; with 102 and sulbactam): 2 µg/mL
MIC of antibiotic at fixed inhibitor concentration of 4 mg/L (Acinetobacter sp. J2; with 102 only): 4 µg/mL
MIC of antibiotic at fixed inhibitor concentration of 4 mg/L (Acinetobacter sp. J2; with 324 and clavulanate): 4 µg/mL
MIC of antibiotic at fixed inhibitor concentration of 4 mg/L (Acinetobacter sp. J2; with 324 and sulbactam): 2 µg/mL
MIC of antibiotic at fixed inhibitor concentration of 4 mg/L (Acinetobacter sp. J2; with 324 only): 4 µg/mL
MIC of antibiotic at fixed inhibitor concentration of 4 mg/L (Acinetobacter sp. J2; with 501): 0.5 µg/mL
MIC of antibiotic at fixed inhibitor concentration of 4 mg/L (Acinetobacter sp. J2; with BRL427158): 0.5 µg/mL
MIC of antibiotic at fixed inhibitor concentration of 4 mg/L (Acinetobacter sp. J2; [7]): >32 µg/mL
MIC of antibiotic at fixed inhibitor concentration of 4 mg/L (Acinetobacter sp. J2; with sulbactam): 2 µg/mL
MIC of antibiotic at fixed inhibitor concentration of 4 mg/L (Acinetobacter sp. J2; with tazobactam): 4 µg/mL
MIC of antibiotic ([2]; antibiotic alone, no inhibitor): 2 µg/mL
MIC of antibiotic at fixed inhibitor concentration of 4 mg/L ([2]; with 102 and clavulanate): 2 µg/mL
MIC of antibiotic at fixed inhibitor concentration of 4 mg/L ([2]; with 102 and sulbactam): 2 µg/mL
MIC of antibiotic at fixed inhibitor concentration of 4 mg/L ([2]; with 102 only): 2 µg/mL
MIC of antibiotic at fixed inhibitor concentration of 4 mg/L ([2]; with 324 and clavulanate): 2 µg/mL
MIC of antibiotic at fixed inhibitor concentration of 4 mg/L ([2]; with 324 and sulbactam): 2 µg/mL
MIC of antibiotic at fixed inhibitor concentration of 4 mg/L ([2]; with 324 only): 4 µg/mL
MIC of antibiotic at fixed inhibitor concentration of 4 mg/L ([2]; with 501): 2 µg/mL
MIC of antibiotic at fixed inhibitor concentration of 4 mg/L ([2]; with BRL427158): 2 µg/mL
MIC of antibiotic at fixed inhibitor concentration of 4 mg/L [2, 7]: 4 µg/mL
MIC of antibiotic at fixed inhibitor concentration of 4 mg/L ([2]; with sulbactam): 4 µg/mL
MIC of antibiotic at fixed inhibitor concentration of 4 mg/L ([2]; with tazobactam): 4 µg/mL
MIC of antibiotic ([3]; antibiotic alone, no inhibitor): <0.06 µg/mL
MIC of antibiotic at fixed inhibitor concentration of 4 mg/L ([3]; with 102 and clavulanate): 0.25 µg/mL
MIC of antibiotic at fixed inhibitor concentration of 4 mg/L ([3]; with 102 and sulbactam): 0.25 µg/mL
MIC of antibiotic at fixed inhibitor concentration of 4 mg/L ([3]; with 102 only): 0.25 µg/mL
MIC of antibiotic at fixed inhibitor concentration of 4 mg/L ([3]; with 324 and clavulanate): 0.25 µg/mL
MIC of antibiotic at fixed inhibitor concentration of 4 mg/L ([3]; with 324 and sulbactam): 0.25 µg/mL
MIC of antibiotic at fixed inhibitor concentration of 4 mg/L ([3]; with 324 only): 0.25 µg/mL
MIC of antibiotic at fixed inhibitor concentration of 4 mg/L ([3]; with 501): 0.125 µg/mL
MIC of antibiotic at fixed inhibitor concentration of 4 mg/L ([3]; with BRL427158): 0.125 µg/mL
MIC of antibiotic at fixed inhibitor concentration of 4 mg/L [3, 7]: ≦0.06 mg/L
MIC of antibiotic at fixed inhibitor concentration of 4 mg/L ([3]; with sulbactam): ≦0.06 mg/L
MIC of antibiotic at fixed inhibitor concentration of 4 mg/L ([3]; with tazobactam): ≦0.06 mg/L
MIC of antibiotic ([4]; antibiotic alone, no inhibitor): 4 µg/mL
MIC of antibiotic at fixed inhibitor concentration of 4 mg/L ([4]; with 102 and clavulanate): 4 µg/mL
MIC of antibiotic at fixed inhibitor concentration of 4 mg/L ([4]; with 102 only): 2 µg/mL
MIC of antibiotic at fixed inhibitor concentration of 4 mg/L ([4]; with 324 and clavulanate): 2 µg/mL
MIC of antibiotic at fixed inhibitor concentration of 4 mg/L ([4]; with 324 only): 2 µg/mL
MIC of antibiotic at fixed inhibitor concentration of 4 mg/L ([4]; with 501): 1 µg/mL
MIC of antibiotic at fixed inhibitor concentration of 4 mg/L ([4]; with BRL427158): 32 µg/mL
MIC of antibiotic at fixed inhibitor concentration of 4 mg/L ([4]; with clavulanic acid): 1 µg/mL
MIC of antibiotic at fixed inhibitor concentration of 4 mg/L ([4]; with sulbactam): 2 µg/mL
MIC of antibiotic at fixed inhibitor concentration of 4 mg/L ([4]; with tazobactam): 4 µg/mL
MIC of antibiotic ([5]; antibiotic alone, no inhibitor): 16 µg/mL
MIC of antibiotic at fixed inhibitor concentration of 4 mg/L ([5]; with 102 and clavulanate): 2 µg/mL
MIC of antibiotic at fixed inhibitor concentration of 4 mg/L ([5]; with 102 and sulbactam): 4 µg/mL
MIC of antibiotic at fixed inhibitor concentration of 4 mg/L ([5]; with 102 only): 2 µg/mL
MIC of antibiotic at fixed inhibitor concentration of 4 mg/L ([5]; with 324 and clavulanate): 2 µg/mL
MIC of antibiotic at fixed inhibitor concentration of 4 mg/L ([5]; with 324 and sulbactam): 2 µg/mL
MIC of antibiotic at fixed inhibitor concentration of 4 mg/L ([5]; with 324 only): 4 µg/mL
MIC of antibiotic at fixed inhibitor concentration of 4 mg/L ([5]; with 501): 2 µg/mL
MIC of antibiotic at fixed inhibitor concentration of 4 mg/L ([5]; with BRL427158): 2 µg/mL
MIC of antibiotic at fixed inhibitor concentration of 4 mg/L [5, 7]: 2 µg/mL
MIC of antibiotic at fixed inhibitor concentration of 4 mg/L ([5]; with sulbactam): 2 µg/mL
MIC of antibiotic at fixed inhibitor concentration of 4 mg/L ([5]; with tazobactam): 2 µg/mL
MIC of antibiotic ([6]; antibiotic alone, no inhibitor): 32 µg/mL
MIC of antibiotic at fixed inhibitor concentration of 4 mg/L ([6]; with 102 and clavulanate): 0.25 µg/mL
MIC of antibiotic at fixed inhibitor concentration of 4 mg/L ([6]; with 102 and sulbactam): 1 µg/mL
MIC of antibiotic at fixed inhibitor concentration of 4 mg/L ([6]; with 102 only): 16 µg/mL
MIC of antibiotic at fixed inhibitor concentration of 4 mg/L ([6]; with 324 and clavulanate): 0.25 µg/mL
MIC of antibiotic at fixed inhibitor concentration of 4 mg/L ([6]; with 324 and sulbactam): 1 µg/mL
MIC of antibiotic at fixed inhibitor concentration of 4 mg/L ([6]; with 324 only): 16 µg/mL
MIC of antibiotic at fixed inhibitor concentration of 4 mg/L ([6]; with 501): 1 µg/mL
MIC of antibiotic at fixed inhibitor concentration of 4 mg/L ([6]; with BRL427158): 0.125 µg/mL
MIC of antibiotic at fixed inhibitor concentration of 4 mg/L [6, 7]: 0.5 µg/mL
MIC of antibiotic at fixed inhibitor concentration of 4 mg/L ([6]; with sulbactam): 1 µg/mL
MIC of antibiotic at fixed inhibitor concentration of 4 mg/L ([6]; with tazobactam): 1 µg/mL
SMILES: CC1(C)[C@H](NC(=O)/C(=N\OCc2cc(=O)c(O)cn2O)c2csc(N)n2)C(=O)N1OS(=O)(=O)O [Compound 26, (3S)-3-{(2Z)-2-(2-amino(1,3-thiazol-4-yl))-3-[(1,5-dihydroxy-4-oxo(2-hydropyridyl))methoxy]-3-azaprop-2-enoylamino}-4,4-dimethyl-2-oxoazetidinyl hydroxysulfonate]
